Measurements from patent publication US20160302411A1, “BLENDS AND THEIR USE IN THE CONTROLLING AND/OR TRAPPING OF MOTHS” (BIOFORSK (THE NORWEGIAN INSTITUTE FOR AGRICULTURAL AND …, priority 2013, published 2016).

These molecules were tested on antennae of mated female C. nigricana (assay: GC-EAD electro-antennography, antennal response to synthetic pea volatiles). Conditions: 10 μg in 10 μl hexane on filter paper, puff 10 ml/sec during 0.2 sec.
Design: species or system Cydia nigricana
Method: C. nigricana were collected as larvae in the North of Hesse, Germany. The keeping of the insects followed the protocol of Thöming and Saucke (2011). Emerging adults mated in Plexiglas cages (30×30×30 cm) in a climate chamber (18±2° C., 60-70% RH, 18:6h L:D). The moths were provided with 10%-honey water solution and water until the experiment. Antennal recordings and wind tunnel tests were done with five-to-seven-days old mated females. After the experiments, females were dissected to verify their mating status and only mated females were used for analysis.
The synthetic odour sources were prepared to mimic natural pea flower odour. The quantity, ratio and blend composition was based on the identification and quantification of compounds emitted from detached pea flowers (50 flowers/headspace sample; mean value, n=10) of P. sativum (cv. AVOLA). The synthetic analogues of all 28 identified compounds released from pea plant material (Table 1) were used for combined gas chromatography-electroantennal detection (GC-EAD) analysis.
GC-EAD was used for antennal recordings on a HP 6890N gas chromatograph, equipped with an HP-5 (30 m×320 μm×0.25 μm; Agilent, Santa Clara, Calif., US) capillary GC column, programmed from 40° C. (hold for 0.5 min) at 8° C./min to 160° C., then 25° C./min to 230° C. (hold for 4 min), and coupled with an electro-antennogram apparatus (Syntech, Hilversum, The Netherlands). The outlet of the GC column was split in a 1:1 ratio between the flame ionization detector (FID) and a pair of cut pea moth antennae which was connected to the EAD. The antennae were mounted in a holder (Syntech) between two silver electrodes, using electrically conductive Gel (Parker, Fairfield, N.J., US). The EAD capillary effluent was delivered to the antennae through a heated transfer line (Syntech) in a glass tube (12 cm×8 mm) in which humidified air was flowing through. The antennal signal and the FID signal were amplified and recorded simultaneously using Syntech software. Each sample injected on the GC contained 5-9 synthetic compounds with different retention times. Each compound was injected at four doses (200 ng, 60 ng, 20 ng, 6 ng), equivalent to 100 ng, 30 ng, 10 ng, 3 ng tested on the antennae. The antennal responses towards compounds and dose rates, respectively, were replicated three to five times, always using a new pair of antennae. […] Only antennae with differences less than 5 μV between the puff before and after the treatment were used for analysis.

Question: With C=C/C=C(\C)CCC=C(C)C [DMNT, 4,8-dimethyl-1, (E) 3,7-nonatriene, reference compound] as the molecule, how does the “antennal response to odour puff (antennal condition test)” value read?
Answer: reproducible antennal responses

Same assay, conditions: GC-EAD dose response over four doses (FIG. 1)

Question: CC/C=C\CCOC(C)=O [(Z)-3-hexenyl acetate] was tested. Which “increase of antennal response with dose, ANOVA P” value (from here on “increase … ANOVA P”) did it give?
Answer: 0.0091

Question: How did the “increase … ANOVA P” value turn out when C=C/C(C)=C/CC=C(C)C [(E)-β-ocimene] was run?
Answer: 0.0051

Question: With C=C/C(C)=C\CC=C(C)C [(Z)-β-ocimene] as the molecule, how does the “increase … ANOVA P” value read?
Answer: 0.0252

Question: With CCCCCCCCC=O [nonanal] as the molecule, how does the “increase … ANOVA P” value read?
Answer: 0.0067

Question: For CCC/C=C/CO [(E)-2-hexen-1-ol], which “increase … ANOVA P” value is on record?
Answer: 0.0049

Question: Which “increase … ANOVA P” value does the source give for CCCCCCCC=O [octanal] here?
Answer: < 0.0001

Question: For CCC/C=C/C=O [2-(E)-hexenal], which “increase … ANOVA P” value is on record?
Answer: 0.0139

Question: Which “increase … ANOVA P” value does the source give for CCCCCCO [1-hexanol] here?
Answer: 0.0003

Question: CC/C=C\CCO [(Z)-3-hexenol] was tested. Which “increase … ANOVA P” value did it give?
Answer: 0.6578
